Columns and labels:
KRAS G12D [1] = target: T1, KRAS G12D (Homo sapiens, UniProt P01116, G12D); assay: GDP-GTP exchange assay, KRAS G12D (bodipy-GDP/GppNHp, SOS1); format: biochemical; conditions: bodipy-loaded KRAS G12D 2.5 nM, 4 hours pre-incubation with inhibitor, SOS1 150 nM, GppNHp 500 uM; read-out: G12D_exchange (KRAS_G12D exchange assay IC50)
Experimental: (§1) The inhibitor potency of the exemplified compounds was determined in a fluorescence based guanine nucleotide exchange assay, which measures the exchange of bodipy-GDP (fluorescently labeled GDP) for GppNHp (Non-hydrolyzable GTP analog) to generate the active state of KRAS in the presence of SOS1 (guanine nucleotide exchange factor). Inhibitors were serially diluted in DMSO and a volume of 0.1 μL was transferred to the wells of a black low volume 384-well plate. Five μL/well volume of bodipy-loaded KRAS G12D or G12V diluted to a final concentration of 2.5 nM in assay buffer (25 mM Hepes pH 7.5, 50 mM NaCl, 10 mM MgCl2 and 0.01% Brij-35) was added to the plate and pre-incubated with inhibitor for 4 hours (G12D) or 3 hours (G12V) at ambient temperature. A cyclic peptide described to selectively bind G12D mutant (Sakamoto et al., BBRC 484.3 (2017), 605-611) or internal compounds with confirmed binding were used as positive controls in the assay plates. The exchange was initiated by the addition of a 5 μL/well volume containing 1 mM GppNHp and 300 nM SOS1 in assay buffer. The 10 μL/well reaction concentration of the bodipy-loaded KRAS G12D or G12V, GppNHp, and SOS1 were 2.5 nM, 500 uM, and 150 nM, respectively.
(§2) Either GraphPad prism or XLfit was used to analyze the data. The IC50 values were derived by fitting the data to a four parameter logistic equation producing a sigmoidal dose-response curve with a variable Hill coefficient. Prism equation: Y=Bottom+(Top−Bottom)/(1+10^((LogIC50-X)*Hill slope)); XLfit equation: Y=(A+((B−A)/(1+((X/C)^D)))) where X is the logarithm of inhibitor concentration and Y is the response.

KRAS G12V = KRAS G12V (Homo sapiens, UniProt P01116, G12V); assay: GDP-GTP exchange assay, KRAS G12V (bodipy-GDP/GppNHp, SOS1); format: biochemical; conditions: bodipy-loaded KRAS G12V 2.5 nM, 3 hours pre-incubation with inhibitor, SOS1 150 nM, GppNHp 500 uM; read-out: G12V_exchange (KRAS_G12V exchange assay IC50)
Experimental: as §1, §2

KRAS G12D [2] = target: T1, KRAS G12D; assay: KRAS_G12D pERK assay (cellular pERK HTRF assay); format: cell-based; design: host or cells: A427 or HPAF-II; conditions: KRAS G12D cells (A427, HPAF-II named in method), 2 hours incubation, Phospho-ERK 1/2 HTRF; read-out: G12D_PERK (KRAS_G12D pERK assay IC50)
Experimental: MIA PaCa-2 (KRAS G12C; ATCC® CRL-1420), A427 (KRAS G12D; ATCC® HTB53), HPAF-II (KRAS G12D; ATCC® CRL-1997) and NCI-H838 (KRAS WT; ATCC® CRL-5844) cells are purchased from ATCC and maintained in RPMI 1640 media supplemented with 10% FBS (Gibco/Life Technologies). The cells are plated at 5000 cells per well (8 uL) into Greiner 384-well low volume, flat-bottom, tissue culture treated white plates and incubated overnight at 37° C., 5% CO2. The next morning, test compound stock solutions are diluted in media at 3× the final concentration, and 4 uL are added to the cells. The plate is mixed by gentle rotation for 30 seconds (250 rpm) at room temperature. The cells are incubated with the KRAS G12C and G12D compounds for 4 hours or 2 hours respectively at 37° C., 5% CO2.
4 uL of 4× lysis buffer with blocking reagent (1:25) (Cisbio) are added to each well and plates are rotated gently (300 rpm) for 30 minutes at room temperature. 4 uL per well of Cisbio anti Phospho-ERK 1/2 d2 is mixed with anti Phospho-ERK 1/2 Cryptate (1:1) are added to each well, mixed by rotation and incubated overnight in the dark at room temperature. Plates are read on the Pherastar plate reader at 665 nm and 620 nm wavelengths. IC50 determination is performed by fitting the curve of inhibitor percent inhibition versus the log of the inhibitor concentration using the GraphPad Prism 7 software.

Sequence of KRAS G12V (P01116 1-188 isoform P01116-2 G12V): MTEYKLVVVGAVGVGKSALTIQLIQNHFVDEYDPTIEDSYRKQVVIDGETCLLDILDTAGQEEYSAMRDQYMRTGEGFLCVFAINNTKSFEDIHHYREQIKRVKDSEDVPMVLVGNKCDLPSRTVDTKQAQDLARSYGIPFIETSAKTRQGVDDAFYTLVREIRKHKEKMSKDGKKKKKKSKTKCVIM
T1 sequence (P01116 1-188 isoform P01116-2 G12D): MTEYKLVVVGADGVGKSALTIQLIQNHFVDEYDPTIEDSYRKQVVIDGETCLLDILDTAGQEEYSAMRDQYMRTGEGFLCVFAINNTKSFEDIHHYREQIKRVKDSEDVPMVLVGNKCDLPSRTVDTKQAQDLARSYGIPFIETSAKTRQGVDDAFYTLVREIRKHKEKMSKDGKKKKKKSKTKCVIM

Compound | IC50 (KRAS G12D [1]) | IC50 (KRAS G12V) | IC50 (KRAS G12D [2])
C[C@H](Oc1nc2c(F)c(-c3c[nH]c4ccccc34)c(CCC#N)cc2c2c1NC(=O)CN2C1C2CNC1C2)[C@@H]1CCCN1C (single isomer, unassigned) [Example 1a] | ≤ 100 nM | ≤ 100 nM | ≤ 100 nM
C[C@H](Oc1nc2c(F)c(-c3cccc(Cl)c3Cl)c(CCC#N)cc2c2c1NC(=O)CN2C1C2CNC1C2)[C@@H]1CCCN1C (single isomer, unassigned) [Example 2b] | ≤ 100 nM | ≤ 100 nM | 100 to 1000 nM
C[C@H](Oc1nc2c(F)c(-c3cccc4ccc(F)cc34)c(CCC#N)cc2c2c1NC(=O)CN2C1C2CNC1C2)[C@@H]1CCCN1C (single isomer, unassigned) [Example 3a] | ≤ 100 nM | ≤ 100 nM | ≤ 100 nM
CN1CCC[C@H]1COc1nc2c(F)c(-c3cc(O)cc4ccccc34)c(CCC#N)cc2c2c1CCCN2C1C2CNC1C2 (single isomer, unassigned) [Example 12b] | ≤ 100 nM | ≤ 100 nM | 100 to 1000 nM
CC1Cc2c(OC[C@@H]3CCCN3C)nc3c(F)c(-c4cc(O)cc5ccccc45)c(CCC#N)cc3c2N(C2C3CNC2C3)C1 (single isomer, unassigned) [Example 14a] | ≤ 100 nM | ≤ 100 nM | 100 to 1000 nM
C[C@H](Oc1nc2c(F)c(-c3cc(O)cc4ccccc34)c(CCC#N)cc2c2c1CCCN2C1C2CNC1C2)[C@@H]1CCCN1C (single isomer, unassigned) [Example 15b] | ≤ 100 nM | ≤ 100 nM | ≤ 100 nM
C[C@H](Oc1nc2c(F)c(-c3cccc(Cl)c3Cl)c(CCC#N)cc2c2c1c(=O)c(-c1cnn(C)c1)cn2[C@H]1[C@H]2CN[C@@H]1C2)[C@@H]1CCCN1C (single isomer, unassigned) [Example 24a] | ≤ 100 nM | ≤ 100 nM | 5000 to 10000 nM
C[C@H](Oc1nc2c(F)c(-c3cccc(Cl)c3Cl)c(CCC#N)cc2c2c1c(=O)c(N1CCCC1=O)cn2[C@H]1[C@H]2CN[C@@H]1C2)[C@@H]1CCCN1C (single isomer, unassigned) [Example 25] | ≤ 100 nM | ≤ 100 nM | –
Cc1cc2c(nc(O[C@@H](C)[C@@H]3CCCN3C)c3c(=O)c(Nc4cnn(C)c4)cn([C@H]4[C@H]5CN[C@@H]4C5)c32)c(F)c1-c1cccc2c1C(C#N)CCC2 (single isomer, unassigned) [Example 26a] | ≤ 100 nM | ≤ 100 nM | –

Other lines, results leading:

IC50 (KRAS G12D [1]) | IC50 (KRAS G12V) | IC50 (KRAS G12D [2]) | Compound
≤ 100 nM | ≤ 100 nM | 5000 to 10000 nM | N#CCCc1cc2c3c(cnc2c(F)c1-c1cc(O)cc2ccccc12)NC(=O)CN3[C@@H]1[C@@H]2CN[C@H]1C2 (racemic) [Example 20a, 3-(1-((endo)-2-Azabicyclo[2.1.1]hexan-5-yl)-7-fluoro-8-(3-hydroxynaphthalen-1-yl)-3-oxo-1,2,3,4-tetrahydropyrazino[2,3-c]quinolin-9-yl)propanenitrile]
≤ 100 nM | ≤ 100 nM | ≤ 100 nM | C[C@H](Oc1nc2c(F)c(-c3cc(O)cc4ccc(F)cc34)c(CCC#N)cc2c2c1NC(=O)CN2C1C2CNC1C2)[C@@H]1CCCN1C (single isomer, unassigned) [Example 4c]
≤ 100 nM | 100 to 1000 nM | 1000 to 5000 nM | C[C@H](Oc1nc2c(F)c(-c3cc(O)cc4ccc(F)cc34)c(CCC#N)cc2c2c1NC(=O)CN2C1C2CNC1C2)[C@@H]1CCCN1C (single isomer, unassigned) [Example 4d]
≤ 100 nM | ≤ 100 nM | 5000 to 10000 nM | CNC(=O)c1ccc(-c2nc3c(F)c(-c4cc(O)cc5ccccc45)c(CCC#N)cc3c3c2NC(=O)CN3C2C3CNC2C3)cn1 (single isomer, unassigned) [Example 5a, 5-(1-((endo)-2-Azabicyclo[2.1.1]hexan-5-yl)-9-(2-cyanoethyl)-7-fluoro-8-(3-hydroxynaphthalen-1-yl)-3-oxo-1,2,3,4-tetrahydropyrazino[2,3-c]quinolin-5-yl)-N-methylpicolinamide]
≤ 100 nM | ≤ 100 nM | 1000 to 5000 nM | N#CCCc1cc2c3c(c(-c4ccc5cccnc5c4)nc2c(F)c1-c1cc(O)cc2ccccc12)NC(=O)CN3C1C2CNC1C2 (single isomer, unassigned) [Example 6a, 3-(1-((endo)-2-Azabicyclo[2.1.1]hexan-5-yl)-7-fluoro-8-(3-hydroxynaphthalen-1-yl)-3-oxo-5-(quinolin-7-yl)-1,2,3,4-tetrahydropyrazino[2,3-c]quinolin-9-yl)propanenitrile]
≤ 100 nM | ≤ 100 nM | 100 to 1000 nM | Cn1cnc(-c2nc3c(F)c(-c4cc(O)cc5ccccc45)c(CCC#N)cc3c3c2NC(=O)CN3C2C3CNC2C3)c1 (single isomer, unassigned) [Example 7a, 3-(1-((endo)-2-Azabicyclo[2.1.1]hexan-5-yl)-7-fluoro-8-(3-hydroxynaphthalen-1-yl)-5-(1-methyl-1H-imidazol-4-yl)-3-oxo-1,2,3,4-tetrahydropyrazino[2,3-c]quinolin-9-yl)propanenitrile]
≤ 100 nM | ≤ 100 nM | 1000 to 5000 nM | CNC(=O)c1cccc(-c2nc3c(F)c(-c4cc(O)cc5ccccc45)c(CCC#N)cc3c3c2NC(=O)CN3C2C3CNC2C3)c1 (single isomer, unassigned) [Example 9a, 3-(1-((endo)-2-Azabicyclo[2.1.1]hexan-5-yl)-9-(2-cyanoethyl)-7-fluoro-8-(3-hydroxynaphthalen-1-yl)-3-oxo-1,2,3,4-tetrahydropyrazino[2,3-c]quinolin-5-yl)-N-methylbenzamide]
≤ 100 nM | ≤ 100 nM | 1000 to 5000 nM | N#CCCc1cc2c3c(c(OC[C@@]45CCCN4C[C@H](F)C5)nc2c(F)c1-c1cc(O)cc2ccccc12)NC(=O)CN3C1C2CNC1C2 (single isomer, unassigned) [Example 10a]
≤ 100 nM | ≤ 100 nM | 1000 to 5000 nM | N#CCCc1cc2c3c(c(OC[C@@]45CCCN4C[C@H](F)C5)nc2c(F)c1-c1cc(O)cc2ccccc12)NC(=O)CN3C1C2CNC1C2 (single isomer, unassigned) [Example 10b]
≤ 100 nM | ≤ 100 nM | 100 to 1000 nM | C[C@@H](CN(C)C)Oc1nc2c(F)c(-c3cc(O)cc4ccccc34)c(CCC#N)cc2c2c1NC(=O)CN2C1C2CNC1C2 (single isomer, unassigned) [Example 11c]
≤ 100 nM | ≤ 100 nM | 1000 to 5000 nM | CN(C)C1CN(c2nc3c(F)c(-c4cc(O)cc5ccccc45)c(CCC#N)cc3c3c2NC(=O)CN3C2C3CNC2C3)C1 (single isomer, unassigned) [Example 13a, 3-(1-((endo)-2-Azabicyclo[2.1.1]hexan-5-yl)-5-(3-(dimethylamino)azetidin-1-yl)-7-fluoro-8-(3-hydroxynaphthalen-1-yl)-3-oxo-1,2,3,4-tetrahydropyrazino[2,3-c]quinolin-9-yl)propanenitrile]
≤ 100 nM | ≤ 100 nM | 1000 to 5000 nM | CC1Cc2c(OC[C@@H]3CCCN3C)nc3c(F)c(-c4cc(O)cc5ccccc45)c(CCC#N)cc3c2N(C2C3CNC2C3)C1 (single isomer, unassigned) [Example 14b]
≤ 100 nM | ≤ 100 nM | 100 to 1000 nM | C[C@@H](CN(C)C)Oc1nc2c(F)c(-c3cc(O)cc4ccccc34)c(CCC#N)cc2c2c1CCCN2C1C2CNC1C2 (single isomer, unassigned) [Example 16b]

Source: US12030883B2, “Hetero-tricyclic compounds as inhibitors of KRAS” (Incyte Corporation, priority 2021, dated 2024)
